One may read the IC50 as the point on the concentration scale where inhibition reaches its midpoint. High values mean a need for much substance, low ones inhibition by little substance. Broadly, the inhibition is the relative decrease from the control value, in per cent. A low value points to a weak effect.

26 compounds from patent publication US10647665B2, “Biaryl urea derivative or salt thereof and preparation process and use for the same” (Fudan University, priority 2016, dated 2020) can be followed below.

Assay [1] addresses RORγ receptor (B-RORγ LBD) (Homo sapiens (Human), UniProt P51449). Description: Inhibitory activity on RORγ receptor in vitro by fluorescence resonance energy transfer (FRET). It counts as biochemical. Particulars: average of at least two independent tests. The method, then: The inhibitory activity of compounds on RORγ receptor was determined by fluorescence resonance energy transfer (FRET) experiments. The inhibitory activity was expressed by half-inhibitory concentration (IC50).
1. Preparation of RORγ Buffer Solution
10 mL of DTT and 100 mL buffer solution were gently mixed together and ready to use.
2. Preparation of Compound Solution
3. Preparation of Protein Mixture a. 40 nM B-RORγ LBD solution and 20 nM SA-APC solution were gently mixed together. The reaction mixture was incubated for 15 minutes at room temperature. Then 400 nM Biotin was added to the described above mixture. After gently mixed together, the resulting mixture was incubated for 10 minutes at room temperature. […]
b. 40 nM Bioin-SRC1 solution and 10 nM SA-eu solution were gently mixed together, and the reaction mixture was incubated for 15 minutes at room temperature. Then 200 nM Biotin was added to the described above mixture. After gently mixed together, the resulting mixture was incubated for 10 minutes at room temperature. […]
d. A mixture of 0.1 μM alternative agonist
N-(2-chloro-6-fluorophenyl)-N-((20-methoxy-[1,10-biphenylyl]-4-substituted)methyl)benzenesulfonamide, 25 μL B-RORγ LBD/SA-APC and Bioin-SRC1/SA-eu mixture solution with test compound were added to one of the well of a 384-well plate, then they were centrifuged for 1 minute at 1000 rpm, and incubated at room temperature for 1 hour. The values were read on the Envision microplate detector and IC50 was calculated.

Assay [2] has as its system Mouse Th17 cell differentiation. The experiment in a line: Inhibition of mouse Th17 cell differentiation (IL-17 by intracellular staining and flow cytometry). The format is cell-based. Particulars: compound at 0.3 μM, mouse spleen CD4+ T cells, 96 hours. The procedure:
Experimental method: Mouse spleen CD4^+ T cells were isolated and differentiated into Th17 cells. CD4^+ T cells were cultured in the environment of anti-CD3 (0.25 μg/mL), anti-CD28 (1 μg/mL), anti-IL4 (2 μg/mL), anti-IFN-γ (2 μg/mL), TGF-β (5 ng/mL), and IL6 (20 ng/mL), and then the test compound was added. After 96 hours, the differentiation efficiency of Th17 was analyzed. Before collection of cells, PMA at 50 ng/mL and ionomycin at 500 ng/mL were added for stimulation for 4 hours, and the ratio of IL-17 was detected by intracellular staining and flow cytometry. At the same time, we used Live/Dead Cell Dye (Invitrogen) staining method to analyze the cell survival rate, to judge whether the drug had toxicity to cells, and determine the inhibition rate of the compound at a concentration of 0.3 μM on IL-17 differentiation by Th 17 cells.
On the technique in general: Flow cytometry measures light scatter and fluorescence of single cells or particles in a stream.

Chain of RORγ receptor (B-RORγ LBD) (P51449 269-508): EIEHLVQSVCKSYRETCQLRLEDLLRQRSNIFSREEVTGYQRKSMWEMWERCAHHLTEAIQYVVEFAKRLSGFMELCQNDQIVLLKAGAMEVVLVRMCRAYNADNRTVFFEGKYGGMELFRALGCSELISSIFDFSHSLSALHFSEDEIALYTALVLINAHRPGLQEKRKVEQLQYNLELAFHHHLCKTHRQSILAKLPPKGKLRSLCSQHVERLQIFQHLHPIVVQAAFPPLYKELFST

`CCS(=O)(=O)c1ccc(CNC(=O)Nc2ccc(-c3ccccc3)cc2)cc1` [Example 1-2, 1-([1,1′-biphenyl]-4-yl)-3-(4-(ethylsulfonyl)benzyl)urea]: the half-maximal inhibitory concentration (IC50) in assay [1] was 5000 to 50000 nM. Moreover, in assay [2], the inhibition at 0.3 µM was 0 to 40%.

`CCS(=O)(=O)c1ccc(CNC(=O)Nc2ccc(-c3ccccc3OC(F)(F)F)c(Cl)c2)cc1` [Example 1-3, 1-(2-chloro-2′-(trifluoromethoxy)-[1,1′-biphenyl]-4-yl)-3-(4-(ethylsulfonyl)benzyl)urea]: the IC50 in assay [1] lay in the range of 500 to 5000 nM. This compound displayed an inhibition at 0.3 µM in assay [2] of 40 to 70%.

On to `CS(=O)(=O)c1ccc(CNC(=O)Nc2cc(Cl)c(-c3ccccc3OC(F)(F)F)c(Cl)c2)cc1` [Example 1-4, 1-(2,6-dichloro-2′-(trifluoromethoxy)-[1,1′-biphenyl]-4-yl)-3-(4-(methylsulfonyl)benzyl)urea], for which, in assay [1], the IC50 is under 500 nM. This compound came in with an inhibition at 0.3 µM in assay [2] of 40 to 70%.

Compound `CNS(=O)(=O)c1ccc(CNC(=O)Nc2cc(Cl)c(-c3ccccc3OC(F)(F)F)c(Cl)c2)cc1` [Example 1-5, 4-((3-(2,6-dichloro-2′-(trifluoromethoxy)-[1,1′-biphenyl]-4-yl)ureido)methyl)-N-methylbenzenesulfonamide] came in with an IC50 in assay [1] of under 500 nM. Besides, the inhibition at 0.3 µM in assay [2] was in the range of 70 to 100%.

Turning to `NS(=O)(=O)c1ccc(CNC(=O)Nc2cc(Cl)c(-c3ccccc3OC(F)(F)F)c(Cl)c2)cc1` [Example 1-6, 4-((3-(2,6-dichloro-2′-(trifluoromethoxy)-[1,1′-biphenyl]-4-yl)ureido)methyl)benzenesulfonamide], the IC50 in assay [1] was under 500 nM. Further, in assay [2], the inhibition at 0.3 µM was 40 to 70%.

Consider `CC(=O)NS(=O)(=O)c1ccc(CNC(=O)Nc2cc(Cl)c(-c3ccccc3OC(F)(F)F)c(Cl)c2)cc1` [Example 1-7, N-((4-((3-(2,6-dichloro-2′-(trifluoromethoxy)-[1,1′-biphen-1,1′-biphenyl]-4-yl)ureido)methyl)phenyl)sulfonyl)acetamide], for which the IC50 in assay [1] is under 500 nM. Also, the inhibition at 0.3 µM in assay [2] lay in the range of 0 to 40%.

In turn, `CCS(=N)(=O)c1ccc(CNC(=O)Nc2cc(Cl)c(-c3ccccc3OC(F)(F)F)c(Cl)c2)cc1` (stereo not drawn) [Example 1-9, 1-(2,6-dichloro-2′-(trifluoromethoxv)-[1,1′-biphenyl]-4-yl)-3-(4-(ethylsulfonimidoyl)benzyl)urea] had an IC50 in assay [1] of under 500 nM.

Compound `CCS(=O)(=O)c1ccc(CNC(=O)Nc2cc(Cl)c(-c3ccccc3OC(F)(F)F)c(Cl)c2)nc1` [Example 1-11, 1-(2,6-dichloro-2′-(trifluoromethoxy)-[1,1′-biphenyl]-4-yl)-3-((5-(ethylsulfonyl)pyridine-2-yl)methyl)urea] returned a half-maximal inhibitory concentration (IC50) in assay [1] of under 500 nM.

Consider `CS(=O)(=O)c1ccc(CNC(=O)Nc2cc(Cl)c(-c3ccccc3OC(F)(F)F)c(Cl)c2)nc1` [Example 1-12, 1-(2,6-dichloro-2′-(trifluoromethoxy)-[1,1′-biphenyl]-4-yl)-3-((5-(methylsulfonyl)pyridine-2-yl)methyl)urea], for which the IC50 in assay [1] was under 500 nM.

Regarding `CNS(=O)(=O)c1ccc(CNC(=O)Nc2cc(Cl)c(-c3ccccc3OC(F)(F)F)c(Cl)c2)nc1` [Example 1-13, 6-((3-(2,6-dichloro-2′-(trifluoromethoxy)-[1,1′-biphenyl]-4-yl)ureido)methyl)-N-methylpyridine-3-sulfonamide], the IC50 in assay [1] is under 500 nM.

In turn, `O=C(NCc1ccc(C(=O)O)cc1)Nc1cc(Cl)c(-c2ccccc2OC(F)(F)F)c(Cl)c1` [Example 1-14, 4-((3-(2,6-dichloro-2′-(trifluoromethoxy)-[1,1′-biphenyl]-4-yl)ureido)methyl)benzoic acid] registered an IC50 in assay [1] of 500 to 5000 nM. Further, the inhibition at 0.3 µM in assay [2] was in the range of 0 to 40%.

With `O=C(O)Cc1ccc(CNC(=O)Nc2cc(Cl)c(-c3ccccc3OC(F)(F)F)c(Cl)c2)cc1` [Example 1-15, 2-(4-((3-(2,6-dichloro-2′-(trifluoromethoxy)-[1,1′-biphenyl]-4-yl)ureido)methyl)phenyl)acetic acid], in assay [2], the inhibition at 0.3 µM fell in the range of 70 to 100%.

Compound `N#Cc1cc(NC(=O)NCc2ccc(CC(=O)O)cc2)cc(Cl)c1-c1ccccc1OC(F)(F)F` [Example 1-16, 2-(4-((3-(2-chloro-6-cyano-2′-(trifluoromethoxy)-[1,1′-biphenyl]-4-yl)ureido)methyl)phenyl)acetic acid] yielded an IC50 in assay [1] of under 500 nM. Also, the inhibition at 0.3 µM in assay [2] was in the range of 0 to 40%.

Take `Cc1cc(NC(=O)NCc2ccc(CC(=O)O)cc2)cc(Cl)c1-c1ccccc1OC(F)(F)F` [Example 1-17, 2-(4-((3-(2-chloro-6-methyl-2′-(trifluoromethoxy)-[1,1′-biphenyl]-4-yl)ureido)methyl)phenyl)acetic acid]: the IC50 in assay [1] was under 500 nM. In assay [2], this compound displayed an inhibition at 0.3 µM of 70 to 100%.

In assay [1], `O=C(O)Cc1ccc(CNC(=O)Nc2ccc(-c3ccccc3OC(F)(F)F)c(Cl)c2)cc1` [Example 1-18, 2-(4-((3-(2-chloro-2′-(trifluoromethoxv)-[1,1′-biphenyl]-4-yl)ureido)methyl)phenyl)acetic acid] gave an IC50 of 500 to 5000 nM. Besides, the inhibition at 0.3 µM in assay [2] lay in the range of 0 to 40%.

In the case of `CC(C(=O)O)c1ccc(CNC(=O)Nc2cc(Cl)c(-c3ccccc3OC(F)(F)F)c(Cl)c2)cc1` (stereo not drawn) [Example 1-24, 2-(4-((3-(2,6-dichloro-2′-(trifluoromethoxy)-[1,1′-biphenyl]-4-yl)ureido)methyl)phenyl)propanoic acid], in assay [1], the IC50 lay within 500 to 5000 nM.

In assay [2], `O=C(O)COc1ccc(CNC(=O)Nc2cc(Cl)c(-c3ccccc3OC(F)(F)F)c(Cl)c2)cc1` [Example 1-26, 2-(4-((3-(2,6-dichloro-2′-(trifluoromethoxy)-[1,1′-biphenyl]-4-yl)ureido)methyl)phenoxy)acetic acid] returned an inhibition at 0.3 µM of 0 to 40%.

In assay [1], `CN(C(=O)NCc1ccc(CC(=O)O)cc1)c1cc(Cl)c(-c2ccccc2OC(F)(F)F)c(Cl)c1` [Example 1-27, 2-(4-((3-(2,6-dichloro-2′-(trifluoromethoxy)-[1,1′-biphenyl]-4-yl)-3-methylureido)methyl)phenyl)acetic acid] came in with an IC50 of 500 to 5000 nM.

Consider `CN(Cc1ccc(CC(=O)O)cc1)C(=O)Nc1cc(Cl)c(-c2ccccc2OC(F)(F)F)c(Cl)c1` [Example 1-28, 2-(4-((3-(2,6-dichloro-2′-(trifluoromethoxy)-[1,1′-biphenyl]-4-yl)-1-methylureido)methyl)phenyl)acetic acid], for which the IC50 in assay [1] was in the range of 500 to 5000 nM.

`CC(C(=O)O)c1ccc(CNC(=O)Nc2cc(Cl)c(-c3ccccc3OC(F)(F)F)c(Cl)c2)nc1` (stereo not drawn) [Example 1-30, 2-(6-((3-(2,6-dichloro-2′-(trifluoromethoxy)-[1,1′-biphenyl]-4-yl)ureido)methyl)pyridin-3-yl)propanoic acid] yielded an IC50 in assay [1] of 500 to 5000 nM.

Consider `Cc1cc(CNC(=O)Nc2cc(Cl)c(-c3ccccc3OC(F)(F)F)c(Cl)c2)ccc1CC(=O)O` [Example 1-31, 3-(4-((3-(2,6-dichloro-2′-(trifluoromethoxy)-[1,1′-biphenyl]-4-yl)ureido)methyl)-2-methylphenyl)acetic acid], for which the IC50 in assay [1] fell in the range of 500 to 5000 nM.

In the case of `Cc1cc(CC(=O)O)ccc1CNC(=O)Nc1cc(Cl)c(-c2ccccc2OC(F)(F)F)c(Cl)c1` [Example 1-34, 3-(4-((3-(2,6-dichloro-2′-(trifluoromethoxy)-[1,1′-biphenyl]-4-yl)ureido)methyl)-3-methylphenyl)acetic acid], the IC50 in assay [1] was under 500 nM.

The compound `O=C(O)CCc1ccc(CNC(=O)Nc2cc(Cl)c(-c3ccccc3OC(F)(F)F)c(Cl)c2)cc1` [Example 1-36, 3-(4-((3-(2,6-dichloro-2′-(trifluoromethoxy)-[1,1′-biphenyl]-4-yl)ureido)methyl)phenyl)propanoic acid] yielded a half-inhibitory concentration (IC50) in assay [1] of 500 to 5000 nM.

For the compound `O=C(NCc1ccc(C(O)C(=O)O)cc1)Nc1cc(Cl)c(-c2ccccc2OC(F)(F)F)c(Cl)c1` (stereo not drawn) [Example 1-37, 2-(4-((3-(2,6-dichloro-2′-(trifluoromethoxy)-[1,1′-biphenyl]-4-yl)ureido)methyl)phenyl)-2-hydroxyacetic acid], the IC50 in assay [1] is under 500 nM.

In turn, `O=C(NCc1ccc(C(F)C(=O)O)cc1)Nc1cc(Cl)c(-c2ccccc2OC(F)(F)F)c(Cl)c1` (stereo not drawn) [Example 1-38, 2-(4-((3-(2,6-dichloro-2′-(trifluoromethoxy)-[1,1′-biphenyl]-4-yl)ureido)methyl)phenyl)-2-fluoroacetic acid] came in with an IC50 in assay [1] of under 500 nM.

In the case of `CCS(=O)(=O)c1ccc(CNC(=O)Nc2cc(Cl)c(-c3ccccc3OC(F)(F)F)c(Cl)c2)cc1` [Example I-1, 1-(2,6-dichloro-2′-(trifluoromethoxy)-[1,1′-biphenyl]-4-yl)-3-(4-(ethylsulfonyl)benzyl)urea], the inhibition at 0.3 µM in assay [2] lay in the range of 70 to 100%.
